{
  "source": "paper PMC11921344",
  "about": "“Antimicrobial peptide DiPGLa-H exhibits the most outstanding anti-infective activity among the PGLa variants based on a systematic comparison” (Applied and Environmental Microbiology, 2025)",
  "key": {"E. coli ATCC25922": {"tested_on": "E. coli ATCC25922", "format": "cell-based, Escherichia coli", "experimental": "(§1) The antibacterial activity was evaluated using a standard MIC and MBC assay according to the National Committee for Clinical Laboratory Standards (NCCLS). MIC, MBC assay, and time-kill curves for the optimal peptide are provided in the Supplementary Materials.\nAntimicrobial Activity Assays. The antibacterial activity of the peptides was determined using a method designed from the National Committee for Clinical Laboratory Standards (NCCLS) in the United States. All the strains used in the experiment are preserved in the laboratory. Briefly, log phase bacterial cells were diluted in MHB to a final concentration of 0.5-1x10^5 CFU/mL. Subsequently, 50μL of different concentrations of polypeptides were incubated with 50 μL of bacterial solution in sterile 96-well plates. In the minimum inhibitory concentration (MIC) assay, […], and the minimum inhibitory concentration (MIC) was determined by the absorbance at 492 nm of the microplate reader, and the minimum inhibitory concentration (MIC) inhibited 95% of bacteria grow. Determination of minimum bactericidal concentration: the plate was incubated at 37°C for 4 hours, 50 μL of the mixture was taken out of each well, diluted with an appropriate amount of PBS, smeared on the agar plate, and cultured overnight. Colonies were counted and the initial CFU/well was retrospectively calculated the following day. The lowest concentration of peptide that kills 99.9% of bacterial cells is the minimum bactericidal concentration (µM), Each test was replicated at least 3 times."}, "A. baumannii ATCC19606": {"tested_on": "A. baumannii ATCC19606", "format": "cell-based, Acinetobacter baumannii", "experimental": "as §1\n(§2) Antimicrobial Activity Assays. The antibacterial activity of the peptides was determined using a method designed from the National Committee for Clinical Laboratory Standards (NCCLS) in the United States. All the strains used in the experiment are preserved in the laboratory. Briefly, log phase bacterial cells were diluted in MHB to a final concentration of 0.5-1x10^5 CFU/mL. Subsequently, 50μL of different concentrations of polypeptides were incubated with 50 μL of bacterial solution in sterile 96-well plates. In the minimum inhibitory concentration (MIC) assay, the plate was incubated at 37°C for 24 h, and the minimum inhibitory concentration (MIC) was determined by the absorbance at 492 nm of the microplate reader, and the minimum inhibitory concentration (MIC) inhibited 95% of bacteria grow. Determination of minimum bactericidal concentration: the plate was incubated at 37°C for 4 hours, 50 μL of the mixture was taken out of each well, diluted with an appropriate amount of PBS, smeared on the agar plate, and cultured overnight. Colonies were counted and the initial CFU/well was retrospectively calculated the following day. The lowest concentration of peptide that kills 99.9% of bacterial cells is the minimum bactericidal concentration (µM), Each test was replicated at least 3 times."}, "P. aeruginosa ATCC27853": {"tested_on": "P. aeruginosa ATCC27853", "format": "cell-based, Pseudomonas aeruginosa", "experimental": "as §1, §2"}, "S. aureus Mu50": {"tested_on": "S. aureus Mu50", "format": "cell-based, Staphylococcus aureus MRSA", "experimental": "as §1, §2"}, "[1]": {"tested_on": "A. baumannii ATCC19606 biofilm", "assay": "Anti-biofilm assay (crystal violet)", "format": "cell-based, Acinetobacter baumannii", "experimental": "(§3) The anti-biofilm activity of DiPGLa-H was evaluated using a crystal violet staining method. Briefly, 100 µL of bacterial suspension at 1 × 10^6 CFU/mL was incubated with DiPGLa-H (0–64 µM) for 48 h. The biofilm formed was stained with 1% crystal violet, and the absorbance was measured at 595 nm. The biofilm formation and mature biofilm removal assays were conducted. For biofilm formation, a bacterial suspension was incubated with DiPGLa-H, and biofilm content was quantified. To assess mature biofilm removal, pre-formed biofilms were treated with DiPGLa-H for 24 h, followed by quantification. Detailed Protocol in Supplementary Materials.\n(§4) To test the ability of DiPGLa-H to […] on the test bacteria, a single colony was inoculated in MHB medium and incubated overnight at 37 °C and 180 r/min, and 1% of the bacterial suspension was taken and continued to be amplified and incubated for 2 h. […] The biofilm content was analyzed by measuring the absorbance value at 595 nm, and anhydrous ethanol was used as a blank control. […]"}, "S. aureus Mu50 biofilm": {"tested_on": "S. aureus Mu50 biofilm", "assay": "Anti-biofilm assay (crystal violet)", "format": "cell-based, Staphylococcus aureus MRSA", "experimental": "as §3, §4"}, "E. coli K88": {"tested_on": "E. coli K88", "assay": "LPS binding assay (MIC with exogenous LPS)", "format": "cell-based, Escherichia coli", "settings": "increasing addition of external LPS, 37°C 24 h, 492 nm", "experimental": "LPS (Sigma, USA) and LTA (Sigma, USA) were dissolved in water at a concentration of 5 mg/mL. Fifty microliters of DiPGLa-H with a concentration gradient of 1–64 μM and 50 µL of LPS or LTA master mix with different concentration gradients were added to the 96-well plate in 2-fold dilution, and finally, 100 µL of diluted E. coli K88 or S. aureus Mu50 was added, incubated at 37°C in a constant temperature incubator for 24 h. The MIC was determined by absorbance at 492 nm using an enzyme marker as the lowest peptide concentration that inhibited 95% of the bacterial growth."}, "[2]": {"assay": "not given", "remark": "listed apart in the source"}, "[3]": {"settings": "1×10^6 CFU/mL, DiPGLa-H 0-64 µM, 48 h, crystal violet, 595 nm"}, "[4]": {"settings": "pre-formed biofilm treated with DiPGLa-H 0-64 µM for 24 h"}},
  "note": "Like-named read-outs stand apart in the source and are kept apart here. Where no end group is shown, it is not given here.",
  "data": [
    {"substance": "KIAKVALKALKIAKVALKAL-NH2 (C-terminus assumed) [DiPGLa-H]", "values": [
      {"measurement": "MBC E. coli ATCC25922", "setting": "E. coli ATCC25922; ATCC25922, 4 h", "value": 8, "unit": "µM"},
      {"measurement": "MIC E. coli ATCC25922", "setting": "E. coli ATCC25922; ATCC25922, 24 h", "value": 8, "unit": "µM"},
      {"measurement": "MBC A. baumannii ATCC19606", "setting": "A. baumannii ATCC19606; ATCC19606, 4 h", "value": 4, "unit": "µM"},
      {"measurement": "MIC A. baumannii ATCC19606", "setting": "A. baumannii ATCC19606; ATCC19606, 24 h", "value": 1, "unit": "µM"},
      {"measurement": "MBC P. aeruginosa ATCC27853", "setting": "P. aeruginosa ATCC27853; ATCC27853, 4 h", "value": 2, "unit": "µM"},
      {"measurement": "MIC P. aeruginosa ATCC27853", "setting": "P. aeruginosa ATCC27853; ATCC27853, 24 h", "value": 2, "unit": "µM"},
      {"measurement": "MBC S. aureus Mu50", "setting": "S. aureus Mu50; Mu50, 4 h", "value": 16, "unit": "µM"},
      {"measurement": "MIC S. aureus Mu50", "setting": "S. aureus Mu50; Mu50, 24 h", "value": 8, "unit": "µM"},
      {"measurement": "MIC S. aureus Mu50", "setting": "S. aureus Mu50; lowest concentration inhibiting 95% of growth, MHB, 0.5-1x10^5 CFU/mL, 37°C 24 h, absorbance 492 nm, three independent experiments", "value": 8, "unit": "µM"},
      {"measurement": "concentration for effective inhibition of biofilm formation", "setting": "[1]; [3]", "value": "above 4 µM"},
      {"measurement": "concentration effectively eradicating biofilms", "setting": "[1]; [4]", "value": "above 16 µM"},
      {"measurement": "inhibition of biofilm formation", "setting": "S. aureus Mu50 biofilm; [3]", "value": "inhibition at higher concentrations"},
      {"measurement": "concentration effectively eradicating biofilms", "setting": "S. aureus Mu50 biofilm; [4]", "value": "above 16 µM"},
      {"measurement": "reduction of antibacterial activity by external LPS", "setting": "E. coli K88", "value": 16, "unit": "fold"},
      {"measurement": "fold higher TIall vs PGLa-B1", "value": 64, "unit": "fold"},
      {"measurement": "fold higher TIall vs kiadin-2", "setting": "[2]", "value": 2.5, "unit": "fold"}
    ]}
  ]
}
